Data: patent publication US20110129508A1 (priority 2008, published 2011)
Read-outs that look alike come from different tables or passages of the source.

How the values were obtained:
[1] = tested on: streptozotocin-induced diabetic neuropathy model of neuropathic pain; settings: rat, in vivo; for maximum non-sedating dose / reduction in hyperalgesia: iv
[2] = rat, in vivo; for maximum non-sedating dose: iv
[3] = tested on: rat model of diabetic neuropathic pain; parameters: species or system rats; settings: in vivo
[4] = in vivo; cited from earlier work
[5] = tested on: carrageenan paw inflammation model; settings: rat, in vivo
[6] = dog, in vivo, iv
[7] = tested on: rat model of prostate bone cancer pain; assay: animal or person; assay type: in vivo, Male Wistar rats; settings: rat, in vivo

CSCC[C@@H]1NC(=O)[C@H](CC(C)C)NC(=O)[C@H](CCCNC(=N)N)NC(=O)[C@H](CO)NC(=O)[C@@H]2CSSC[C@@H]3NC(=O)[C@H](CO)NC(=O)CNC(=O)[C@H]([C@@H](C)O)NC(=O)[C@H](CSSC[C@H](N)C(=O)N[C@@H](CCCCN)C(=O)NCC(=O)N[C@@H](CCCCN)C(=O)NCC(=O)N[C@@H](C)C(=O)N[C@@H](CCCCN)C(=O)N2)NC(=O)[C@H](CSSC[C@@H](C(N)=O)NC(=O)[C@H](CCCCN)NC(=O)CNC(=O)[C@H](CO)NC(=O)[C@H](CCCNC(=N)N)NC3=O)NC(=O)[C@H](CC(=O)O)NC(=O)[C@H](Cc2ccc(O)cc2)NC1=O [MVIIA, ziconotide]
maximum non-sedating dose [1]: 0.02 mg/kg | maximum non-sedating dose [2]: 0.02 mg/kg

leconotide [CVID]
efficacy compared with gabapentin or morphine alone or in combination [1]: improved efficacy | maximum non-sedating dose [1]: 2.0 mg/kg | reduction in hyperalgesia ([1]; 0.02 mg/kg): approximately 30% | reduction in hyperalgesia ([1]; 2 mg/kg): greater than 50% | antinociceptive effect [3]: dose related antinociceptive effects | toxicity on intravenous administration [4]: less toxic than ziconotide | analgesic response compared to saline administration [5]: effective at inducing an analgesic response | duration of antinociceptive responses following injection of the bolus ([5]; ip): 4 to 6 h | adverse effects on cardiovascular function [6]: no adverse effects on cardiovascular function | toxicological or pathological effect [6]: no toxicological or pathological effect was observed | mean rest times [2]: 982.89 s | maximum non-sedating dose [2]: 2 mg/kg | reversal of the hyperalgesia caused by intratibial prostate bone cancer (FIG. 7) [7]: small, statistically non-significant reversal | antinociceptive effects ([7]; iv): no significant antinociceptive effects
